In patent US7939564B2, “Combination with bis(thiohydrazide amides) for treating cancer” (Synta Pharmaceuticals Corp., priority 2006, dated 2011):
“And” between values parts separate entries of the source, which are not always exact repeats. Identical values can stand only once. “Also recorded” adds a separate entry of the source. Like-named read-outs stand apart in the source and are kept apart here.

Assays:
melanoma = settings: other currently used treatments for melanoma, cited from earlier work
Hsp70 = Hsp70 induction by Compound 1 in cells pre-treated with Tiron; type: cell-based; settings: Ramos cells pre-treated with 500 mM Tiron 1 hour prior to Compound 1 0.5 μM for 24 hours
Ramos cells = assay: ROS generation in drug-treated cells, carboxy-H2DCFDA probe, flow cytometry; type: cell-based; settings: for blocking of the ROS generation induced by Compound 1: Ramos cells pre-treated 1 hour (NAC 1.0 mM or 10 mM; Tiron 500 mM) prior to Compound 1 0.5 μM for 24 hours
Description: In these experiments, we monitored the production of ROS using the cell permeable Carboxy-H2DCFDA probe. When this probe is oxidized by ROS, it emits a green fluorescence that can be detected using flow cytometry or fluorescent microscopy. Ramos cells were treated with Compound 1 (0.5 μM) for 24 hours or pre-treated with 1.0 mM or 10 mM NAC for 1 hour prior to addition of Compound 1 was then washed gently once with warm HBSS/Ca/Mg (GIBCO.14025). 25 μM carboxy-H2DCFDA (Invitrogen. C400) working solution was added to cover the cells, and the cells were incubated for 30 minutes at 37° C., protected from light. The cells were gently washed three times in warm HBSS/Ca/Mg. ROS levels, as determined by fluorescence intensity, were determined by flow cytometry (excitation at 495 nm, emission at 529 nm).
Tiron is a direct scavenger of ROS and is a potent inhibitor of oxidative stress. Ramos cells were pre-treated with 500 mM Tiron 1 hour prior to addition of Compound 1 (0.5 μM) for 24 hours, then measurement of ROS levels was performed as in Example 3.

[1] = tested on: RERF-LC-AI^IVP human lung tumor cells; assay: Nude mouse xenograft study with fractionated ionizing radiation; type: in vivo
Description: Cells that had been cryopreserved in liquid nitrogen were rapidly thawed at 37° C. and transferred to a tissue culture flask containing growth media and then incubated at 37° C. in a 5% CO2 incubator. […] Cultures were passaged by washing with 10 mL of room temperature phosphate buffered saline (PBS) and then disassociating cells by adding 5 mL 1× trypsin-EDTA and incubating at 37° C. until the cells detached from the surface of the flask. To inactivate the trypsin, 5 mL of growth media was added and then the contents of the flask were centrifuged to pellet the cells. The supernatant was aspirated and the cell pellet was resuspended in 10 mL of growth media and the cell number determined using a hemocytometer.
Animals were housed 4-5/cage in micro-isolators, with a 12 hr/12 hr light/dark cycle, acclimated for at least 1 week prior to use and fed normal laboratory chow ad libitum.

[2] = RECIST, Efficacy Sample (n = 50 combination, n = 27 Paclitaxel)
[3] = Tables 3 and 4, lines of the applicant's own trial

Description for Stage 1V melanoma: A total of 81 people with Stage 1V melanoma were tested in a randomized trial with ratios of 2:1, compound (I)+paclitaxel (53 people): paclitaxel alone (28 people). The dosages administered were 213 mg/m^2 compound (I), 80 mg/m^2 paclitaxel, and the dosage regimen was 3 weekly doses per each 4 week cycle. Patients were treated until progression of the disease. Patients who progressed on paclitaxel alone were given the option to crossover to compound (I)+paclitaxel and were treated until progression. The tumor assessments were performed at baseline, Cycle 2, and every other Cycle thereafter.

SMILES: CCOP(=O)(OCC)C(C)NC(=O)N(CCCl)N=O (stereo not drawn) [Fotemustine]
- OR (%) (melanoma): 15.2%
- Survival (months) (melanoma): 7.3 months
- TTP (melanoma): 55 days

SMILES: O=S(=O)(O)c1cc(O)c(O)c(S(=O)(=O)O)c1 [Tiron]
- blocking of the Hsp70 induction by Compound 1 (Hsp70): blocked; also recorded: blocks the induction of Hsp70
- blocking of the ROS generation induced by Compound 1 (Ramos cells): blocked the ability of Compound 1 to generate ROS; also recorded: block the production of reactive oxygen species

SMILES: CC/C(=C(\c1ccccc1)c1ccc(OCCN(C)C)cc1)c1ccccc1 [Tamoxifen]
- CR (%) (melanoma): 1%
- OR (%) (melanoma): 4.9%
- PR (%) (melanoma): 3.9%

SMILES: CC(=O)O[C@H]1C(=O)[C@@]2(C)[C@H]([C@H](OC(=O)c3ccccc3)[C@]3(O)C[C@H](OC(=O)[C@H](O)[C@@H](NC(=O)c4ccccc4)c4ccccc4)C(C)=C1C3(C)C)[C@]1(OC(C)=O)CO[C@@H]1C[C@@H]2O [Paclitaxel]
- OR (%) (melanoma; listed as Paclitaxel (Taxol)): 12% and 17.8%
- Time to Progression (days), 25th percentile (Stage 1V melanoma; Kaplan-Meier estimate, Efficacy Sample, 213 mg/m^2 compound (I), 80 mg/m^2 paclitaxel, 3 weekly doses per 4 week cycle): 49.0 days
- Time to Progression (days), 75th percentile (Stage 1V melanoma; Kaplan-Meier estimate, Efficacy Sample, same regimen): 106.0 days
- Time to Progression (days), Median (Stage 1V melanoma; Kaplan-Meier estimate, Efficacy Sample, same regimen, log-rank p-value 0.017): 56.0 days
- Best Overall Response: Partial Response (PR), percent of patients (Stage 1V melanoma; RECIST, Efficacy Sample): (3.7%)
- Best Overall Response: Progressive Disease (PD), percent of patients (Stage 1V melanoma; RECIST, Efficacy Sample): (59.3%)
- Best Overall Response: Complete Response (CR), number of patients (Stage 1V melanoma; [2]): 0
- Best Overall Response: Partial Response (PR), number of patients (Stage 1V melanoma; [2]): 1
- Best Overall Response: Progressive Disease (PD), number of patients (Stage 1V melanoma; [2]): 16
- Best Overall Response: Stable Disease (SD), number of patients (Stage 1V melanoma; [2]): 10
- CR + PR (Stage 1V melanoma; RECIST, Efficacy Sample, Two-Sided Fisher's Exact Test p-value 0.149): 3.7%
- CR (%) (Stage 1V melanoma; [3]): 0%
- OR (%) (Stage 1V melanoma; [3]): 3.7%
- PR (%) (Stage 1V melanoma; [3]): 3.7%
- TTP (Stage 1V melanoma; [3]): 57 days

SMILES: CC(=O)N[C@@H](CS)C(=O)O [NAC]
- blocking of the ROS generation induced by Compound 1 (Ramos cells): almost completely blocked the generation of ROS; also recorded: can be blocked; also recorded: block the production of reactive oxygen species

SMILES: CNC(=O)c1cc(Oc2ccc(NC(=O)Nc3ccc(Cl)c(C(F)(F)F)c3)cc2)ccn1 [Sorafenib]
- PR (%) (melanoma): 2.6%

SMILES: CN(NC(=O)CC(=O)NN(C)C(=S)c1ccccc1)C(=S)c1ccccc1 [Compound (1)]
- earliest time at which induction of ROS was observed (Ramos cells; Ramos cells, Compound 1): ≤ 3 h
- generation of ROS in drug-treated cells (Ramos cells; Ramos cells, Compound 1 0.5 μM, 24 hours, versus DMSO): induced the generation of ROS; also recorded: emit more reactive oxygen species than cells treated with DMSO alone
- % T/C ([1]; 100 mg/kg Compound 1 5 times per week combined with 0.5 Gy radiation 3 times per week, dosed 420 minutes after irradiation): 47
- toxicity of the combination treatment ([1]; 100 mg/kg Compound 1 combined with 0.5 Gy radiation, Nude mice): not associated with excessive toxicity
- % T/C ([1]; 100 mg/kg Compound 1 i.v. 5 times per week, 15 doses, alone (mock irradiation)): 112
